In ChEMBL document CHEMBL4049402, “Synthesis and cytotoxic activity of novel tetrahydrobenzodifuran-imidazolium salt derivatives” (Bioorg Med Chem Lett, 2017):

Columns and labels:
Assay type in all cases: functional, cell-based
MCF7 = experiment: Cytotoxicity against human MCF7 cells after 48 hrs by MTT assay
SMMC-7721 = experiment: Cytotoxicity against human SMMC7721 cells after 48 hrs by MTT assay
SW480 = experiment: Cytotoxicity against human SW480 cells after 48 hrs by MTT assay
HL-60 = experiment: Cytotoxicity against human HL60 cells after 48 hrs by MTT assay
A549 = experiment: Cytotoxicity against human A549 cells after 48 hrs by MTT assay

Cc1cc2c(cc1C)[n+](Cc1ccc3ccccc3c1)cn2Cc1c2c(cc3c1OCC3)OCC2 [listing 1 of 2 here]
IC50 (MCF7; mcf7): 8.34 µM | IC50 (SMMC-7721; smmc-7721): 2.98 µM | IC50 (SW480; sw480): 6.84 µM | IC50 (HL-60; hl-60): 0.29 µM | IC50 (A549; a549): 3.62 µM

Cc1n(Cc2c3c(cc4c2OCC4)OCC3)c2ccccc2[n+]1Cc1ccc([N+](=O)[O-])cc1
IC50 (MCF7; Homo sapiens, MCF7, 48 h): > 20 µM | IC50 (SMMC-7721; Homo sapiens, SMMC-7721, 48 h): > 20 µM | IC50 (SW480; Homo sapiens, SW480, 48 h): > 20 µM | IC50 (HL-60; Homo sapiens, HL-60, 48 h): > 20 µM | IC50 (A549; Homo sapiens, A549, 48 h): > 20 µM

COc1ccc(C(=O)C[n+]2c(C)n(Cc3c4c(cc5c3OCC5)OCC4)c3ccccc32)cc1
IC50 (MCF7; Homo sapiens, MCF7, 48 h): 7.87 µM | IC50 (SMMC-7721; Homo sapiens, SMMC-7721, 48 h): > 20 µM | IC50 (SW480; Homo sapiens, SW480, 48 h): 10.1 µM | IC50 (HL-60; Homo sapiens, HL-60, 48 h): 5.14 µM | IC50 (A549; Homo sapiens, A549, 48 h): > 20 µM

O=C(C[n+]1cn(Cc2c3c(cc4c2OCC4)OCC3)c2ccccc21)c1ccc(Br)cc1
IC50 (MCF7; Homo sapiens, MCF7, 48 h): 5.12 µM | IC50 (SMMC-7721; Homo sapiens, SMMC-7721, 48 h): 5.95 µM | IC50 (SW480; Homo sapiens, SW480, 48 h): 5.11 µM | IC50 (HL-60; Homo sapiens, HL-60, 48 h): 5.81 µM | IC50 (A549; Homo sapiens, A549, 48 h): 16.1 µM

Cc1ccc(C[n+]2cn(Cc3c4c(cc5c3OCC5)OCC4)c3ccccc32)cc1
IC50 (MCF7; Homo sapiens, MCF7, 48 h): > 20 µM | IC50 (SMMC-7721; Homo sapiens, SMMC-7721, 48 h): > 20 µM | IC50 (SW480; Homo sapiens, SW480, 48 h): > 20 µM | IC50 (HL-60; Homo sapiens, HL-60, 48 h): > 20 µM | IC50 (A549; Homo sapiens, A549, 48 h): > 20 µM

Cc1cc2c(cc1C)[n+](Cc1ccc3ccccc3c1)cn2Cc1c2c(cc3c1OCC3)OCC2 [listing 2 of 2 here]
IC50 (MCF7; mcf7): 3.94 µM | IC50 (SMMC-7721; Homo sapiens, SMMC-7721, 48 h): 2.99 µM | IC50 (SW480; Homo sapiens, SW480, 48 h): 3.48 µM | IC50 (HL-60; hl-60): 1.06 µM | IC50 (A549; Homo sapiens, A549, 48 h): 4.34 µM

Cc1ccc(C[n+]2cn(Cc3c4c(cc5c3OCC5)OCC4)c3cc(C)c(C)cc32)cc1
IC50 (MCF7; Homo sapiens, MCF7, 48 h): 7.39 µM | IC50 (SMMC-7721; Homo sapiens, SMMC-7721, 48 h): 4.43 µM | IC50 (SW480; Homo sapiens, SW480, 48 h): 6.15 µM | IC50 (HL-60; hl-60): 1.58 µM | IC50 (A549; Homo sapiens, A549, 48 h): 5.82 µM

Cc1cc2c(cc1C)[n+](CC(=O)c1ccc(Br)cc1)cn2Cc1c2c(cc3c1OCC3)OCC2 [listing 1 of 2 here]
IC50 (MCF7; Homo sapiens, MCF7, 48 h): 12.7 µM | IC50 (SMMC-7721; smmc-7721): 6.23 µM | IC50 (SW480; Homo sapiens, SW480, 48 h): 16.3 µM | IC50 (HL-60; Homo sapiens, HL-60, 48 h): 4.04 µM | IC50 (A549; Homo sapiens, A549, 48 h): 8 µM

c1cn(Cc2c3c(cc4c2OCC4)OCC3)cn1
IC50 (MCF7; Homo sapiens, MCF7, 48 h): > 20 µM | IC50 (SMMC-7721; Homo sapiens, SMMC-7721, 48 h): > 20 µM | IC50 (SW480; Homo sapiens, SW480, 48 h): > 20 µM | IC50 (HL-60; Homo sapiens, HL-60, 48 h): > 20 µM | IC50 (A549; Homo sapiens, A549, 48 h): > 20 µM

O=C(C[n+]1cn(Cc2c3c(cc4c2OCC4)OCC3)c2ccccc21)c1ccccc1
IC50 (MCF7; Homo sapiens, MCF7, 48 h): > 20 µM | IC50 (SMMC-7721; Homo sapiens, SMMC-7721, 48 h): > 20 µM | IC50 (SW480; Homo sapiens, SW480, 48 h): > 20 µM | IC50 (HL-60; Homo sapiens, HL-60, 48 h): > 20 µM | IC50 (A549; Homo sapiens, A549, 48 h): > 20 µM

Cc1ccc(C[n+]2ccn(Cc3c4c(cc5c3OCC5)OCC4)c2)cc1
IC50 (MCF7; Homo sapiens, MCF7, 48 h): > 20 µM | IC50 (SMMC-7721; Homo sapiens, SMMC-7721, 48 h): > 20 µM | IC50 (SW480; Homo sapiens, SW480, 48 h): > 20 µM | IC50 (HL-60; Homo sapiens, HL-60, 48 h): > 20 µM | IC50 (A549; Homo sapiens, A549, 48 h): > 20 µM

Cc1n(Cc2c3c(cc4c2OCC4)OCC3)c2ccccc2[n+]1CC(=O)c1ccccc1
IC50 (MCF7; Homo sapiens, MCF7, 48 h): > 20 µM | IC50 (SMMC-7721; Homo sapiens, SMMC-7721, 48 h): > 20 µM | IC50 (SW480; Homo sapiens, SW480, 48 h): > 20 µM | IC50 (HL-60; Homo sapiens, HL-60, 48 h): > 20 µM | IC50 (A549; Homo sapiens, A549, 48 h): > 20 µM

Cc1n(Cc2c3c(cc4c2OCC4)OCC3)c2ccccc2[n+]1Cc1ccccc1Br
IC50 (MCF7; Homo sapiens, MCF7, 48 h): > 20 µM | IC50 (SMMC-7721; Homo sapiens, SMMC-7721, 48 h): > 20 µM | IC50 (SW480; Homo sapiens, SW480, 48 h): > 20 µM | IC50 (HL-60; Homo sapiens, HL-60, 48 h): > 20 µM | IC50 (A549; Homo sapiens, A549, 48 h): > 20 µM

O=[N+]([O-])c1ccc(C[n+]2cn(Cc3c4c(cc5c3OCC5)OCC4)c3ccccc32)cc1
IC50 (MCF7; Homo sapiens, MCF7, 48 h): > 20 µM | IC50 (SMMC-7721; Homo sapiens, SMMC-7721, 48 h): > 20 µM | IC50 (SW480; Homo sapiens, SW480, 48 h): > 20 µM | IC50 (HL-60; Homo sapiens, HL-60, 48 h): > 20 µM | IC50 (A549; Homo sapiens, A549, 48 h): > 20 µM

O=[N+]([O-])c1ccc(C[n+]2ccn(Cc3c4c(cc5c3OCC5)OCC4)c2)cc1
IC50 (MCF7; Homo sapiens, MCF7, 48 h): > 20 µM | IC50 (SMMC-7721; Homo sapiens, SMMC-7721, 48 h): > 20 µM | IC50 (SW480; Homo sapiens, SW480, 48 h): > 20 µM | IC50 (HL-60; Homo sapiens, HL-60, 48 h): > 20 µM | IC50 (A549; Homo sapiens, A549, 48 h): > 20 µM

c1ccc2c(c1)ncn2Cc1c2c(cc3c1OCC3)OCC2
IC50 (MCF7; Homo sapiens, MCF7, 48 h): > 20 µM | IC50 (SMMC-7721; Homo sapiens, SMMC-7721, 48 h): > 20 µM | IC50 (SW480; Homo sapiens, SW480, 48 h): > 20 µM | IC50 (HL-60; Homo sapiens, HL-60, 48 h): > 20 µM | IC50 (A549; Homo sapiens, A549, 48 h): > 20 µM

Brc1ccc(C[n+]2cn(Cc3c4c(cc5c3OCC5)OCC4)c3ccccc32)cc1
IC50 (MCF7; Homo sapiens, MCF7, 48 h): 5.4 µM | IC50 (SMMC-7721; Homo sapiens, SMMC-7721, 48 h): 17.8 µM | IC50 (SW480; Homo sapiens, SW480, 48 h): 10.1 µM | IC50 (HL-60; Homo sapiens, HL-60, 48 h): 4.12 µM | IC50 (A549; Homo sapiens, A549, 48 h): > 20 µM

O=C(C[n+]1ccn(Cc2c3c(cc4c2OCC4)OCC3)c1)c1ccc2ccccc2c1
IC50 (MCF7; Homo sapiens, MCF7, 48 h): > 20 µM | IC50 (SMMC-7721; Homo sapiens, SMMC-7721, 48 h): > 20 µM | IC50 (SW480; Homo sapiens, SW480, 48 h): > 20 µM | IC50 (HL-60; Homo sapiens, HL-60, 48 h): > 20 µM | IC50 (A549; Homo sapiens, A549, 48 h): > 20 µM

Cc1cc2c(cc1C)[n+](Cc1ccc(Br)cc1)cn2Cc1c2c(cc3c1OCC3)OCC2
IC50 (MCF7; Homo sapiens, MCF7, 48 h): 6.85 µM | IC50 (SMMC-7721; Homo sapiens, SMMC-7721, 48 h): 4.72 µM | IC50 (SW480; Homo sapiens, SW480, 48 h): 10.1 µM | IC50 (HL-60; Homo sapiens, HL-60, 48 h): 0.49 µM | IC50 (A549; Homo sapiens, A549, 48 h): 6.9 µM

Cc1cc2c(cc1C)[n+](CC(=O)c1ccc(Br)cc1)cn2Cc1c2c(cc3c1OCC3)OCC2 [listing 2 of 2 here]
IC50 (MCF7; mcf7): 18 µM | IC50 (SMMC-7721; smmc-7721): 13 µM | IC50 (SW480; sw480): 15.2 µM | IC50 (HL-60; hl-60): 2.38 µM | IC50 (A549; a549): 15.3 µM

c1ccc2cc(C[n+]3cn(Cc4c5c(cc6c4OCC6)OCC5)c4ccccc43)ccc2c1
IC50 (MCF7; Homo sapiens, MCF7, 48 h): 2.62 µM | IC50 (SMMC-7721; Homo sapiens, SMMC-7721, 48 h): 5.66 µM | IC50 (SW480; Homo sapiens, SW480, 48 h): 4.11 µM | IC50 (HL-60; Homo sapiens, HL-60, 48 h): 2.3 µM | IC50 (A549; Homo sapiens, A549, 48 h): 10.7 µM
